Results as given in publication PMC10412597, “Small molecule branched-chain ketoacid dehydrogenase kinase (BDK) inhibitors with opposing effects on BDK protein levels” (Nature Communications, 2023).
Read-outs that look alike come from different tables or passages of the source.

Columns and labels:
[1] = target: T1, Norepinephrine Transporter (Homo sapiens, UniProt P23975); design: Cerep Bioprint off-target panel, ligand binding inhibition; conditions: binder
T1 construct: gene SLC6A2
Protocol: (§1) To discover a potent and selective BDK inhibitor, a subset of the Pfizer compound collection was screened. […] Off target activity was assessed in both CEREP and kinase panels (Supplementary Tables 2, 3).

Choline Transporter = target: T2, Choline Transporter (Homo sapiens, UniProt Q9GZV3); design: Cerep Bioprint off-target panel, ligand binding inhibition; conditions: binder
T2 construct: gene SLC5A7
Protocol: as §1

PPAR-gamma [2] = target: T3, PPAR-gamma (Homo sapiens, UniProt P37231); design: Cerep Bioprint off-target panel, ligand binding inhibition; conditions: binder
T3 construct: gene PPARG
T3 sequence (P37231 1-505): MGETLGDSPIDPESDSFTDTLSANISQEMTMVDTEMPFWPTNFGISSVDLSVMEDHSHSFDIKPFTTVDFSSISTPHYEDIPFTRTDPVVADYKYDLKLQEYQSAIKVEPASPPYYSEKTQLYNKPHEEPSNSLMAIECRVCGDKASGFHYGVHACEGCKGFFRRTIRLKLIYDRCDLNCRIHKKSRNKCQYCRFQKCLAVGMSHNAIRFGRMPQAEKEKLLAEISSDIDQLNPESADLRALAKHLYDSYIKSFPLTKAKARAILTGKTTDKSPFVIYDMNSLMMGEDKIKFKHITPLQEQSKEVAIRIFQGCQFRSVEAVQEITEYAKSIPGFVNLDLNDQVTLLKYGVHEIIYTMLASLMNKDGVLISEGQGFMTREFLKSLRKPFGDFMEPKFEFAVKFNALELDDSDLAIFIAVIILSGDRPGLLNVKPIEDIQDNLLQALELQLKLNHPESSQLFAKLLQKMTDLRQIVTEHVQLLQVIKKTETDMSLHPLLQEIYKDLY
Protocol: as §1

Serotonin Transporter = target: T4, Serotonin Transporter (Homo sapiens, UniProt P31645); design: Cerep Bioprint off-target panel, ligand binding inhibition; conditions: binder
T4 construct: gene SLC6A4
T4 sequence (P31645 whole entry): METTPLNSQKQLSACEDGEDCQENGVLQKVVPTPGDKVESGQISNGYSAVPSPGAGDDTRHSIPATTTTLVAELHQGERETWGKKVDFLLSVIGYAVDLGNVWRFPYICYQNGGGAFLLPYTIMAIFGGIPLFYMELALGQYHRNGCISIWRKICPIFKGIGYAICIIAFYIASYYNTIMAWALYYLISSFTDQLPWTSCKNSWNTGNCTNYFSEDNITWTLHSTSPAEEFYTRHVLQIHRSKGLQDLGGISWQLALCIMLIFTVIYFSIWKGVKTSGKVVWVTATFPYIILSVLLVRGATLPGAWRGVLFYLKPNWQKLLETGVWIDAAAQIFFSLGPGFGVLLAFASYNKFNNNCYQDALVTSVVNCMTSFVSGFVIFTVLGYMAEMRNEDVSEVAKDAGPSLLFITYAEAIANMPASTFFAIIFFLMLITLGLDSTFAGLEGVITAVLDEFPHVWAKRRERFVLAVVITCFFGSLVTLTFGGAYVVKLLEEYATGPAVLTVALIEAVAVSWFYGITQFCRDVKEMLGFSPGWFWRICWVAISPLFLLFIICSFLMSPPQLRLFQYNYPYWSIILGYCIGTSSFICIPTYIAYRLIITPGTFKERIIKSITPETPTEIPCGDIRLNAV
Protocol: as §1

[3] = target: T5, Nicotinic Acetylcholine Receptor (alpha4, beta2 subunit containing) (Homo sapiens, UniProt P17787+P43681); design: Cerep Bioprint off-target panel, ligand binding inhibition; conditions: binder
T5 construct: gene CHRNB2
T5 sequence (P17787 whole entry): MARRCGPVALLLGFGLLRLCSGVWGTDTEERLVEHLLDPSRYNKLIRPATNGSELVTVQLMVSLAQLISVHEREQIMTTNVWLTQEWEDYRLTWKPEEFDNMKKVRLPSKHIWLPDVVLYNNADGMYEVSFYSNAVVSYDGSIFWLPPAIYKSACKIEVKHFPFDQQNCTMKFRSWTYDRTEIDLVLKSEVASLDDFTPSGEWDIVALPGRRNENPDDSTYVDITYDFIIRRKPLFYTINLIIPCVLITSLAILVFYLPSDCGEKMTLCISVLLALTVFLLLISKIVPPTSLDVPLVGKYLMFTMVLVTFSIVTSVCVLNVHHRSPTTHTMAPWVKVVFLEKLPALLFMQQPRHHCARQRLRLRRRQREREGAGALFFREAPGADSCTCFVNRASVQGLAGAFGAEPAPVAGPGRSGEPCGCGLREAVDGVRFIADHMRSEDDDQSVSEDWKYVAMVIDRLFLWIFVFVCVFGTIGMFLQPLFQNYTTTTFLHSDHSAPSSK
T5 sequence (P43681 whole entry): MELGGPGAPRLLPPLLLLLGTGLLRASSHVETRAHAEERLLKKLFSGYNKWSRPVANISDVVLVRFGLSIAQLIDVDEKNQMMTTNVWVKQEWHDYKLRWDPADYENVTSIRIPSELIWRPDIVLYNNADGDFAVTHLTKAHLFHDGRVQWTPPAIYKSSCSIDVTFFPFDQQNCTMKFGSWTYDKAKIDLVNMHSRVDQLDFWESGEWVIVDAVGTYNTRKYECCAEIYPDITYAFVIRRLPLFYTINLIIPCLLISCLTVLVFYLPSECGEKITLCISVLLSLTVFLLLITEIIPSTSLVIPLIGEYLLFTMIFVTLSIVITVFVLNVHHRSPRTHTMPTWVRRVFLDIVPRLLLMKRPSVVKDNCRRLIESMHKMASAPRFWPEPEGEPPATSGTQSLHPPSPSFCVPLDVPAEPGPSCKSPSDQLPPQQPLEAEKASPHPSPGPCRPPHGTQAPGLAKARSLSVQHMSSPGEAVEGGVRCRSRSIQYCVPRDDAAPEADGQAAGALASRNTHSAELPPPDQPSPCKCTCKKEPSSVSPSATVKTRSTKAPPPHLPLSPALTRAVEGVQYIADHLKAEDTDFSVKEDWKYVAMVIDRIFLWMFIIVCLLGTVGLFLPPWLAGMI
Protocol: as §1

Dopamine Transporter = target: T6, Dopamine Transporter (Homo sapiens, UniProt Q01959); design: Cerep Bioprint off-target panel, ligand binding inhibition; conditions: binder
T6 construct: gene SLC6A3
Protocol: as §1

Androgen Receptor = target: T7, Androgen Receptor (Homo sapiens, UniProt P10275); design: Cerep Bioprint off-target panel, ligand binding inhibition; conditions: binder
T7 construct: gene AR
Protocol: as §1

GABAa1 Receptor = target: T8, GABAa1 Receptor (Homo sapiens, UniProt P14867+P18507+P47870); design: Cerep Bioprint off-target panel, ligand binding inhibition; conditions: binder
T8 construct: gene GABRA1; alpha1
T8 sequence (P14867 whole entry): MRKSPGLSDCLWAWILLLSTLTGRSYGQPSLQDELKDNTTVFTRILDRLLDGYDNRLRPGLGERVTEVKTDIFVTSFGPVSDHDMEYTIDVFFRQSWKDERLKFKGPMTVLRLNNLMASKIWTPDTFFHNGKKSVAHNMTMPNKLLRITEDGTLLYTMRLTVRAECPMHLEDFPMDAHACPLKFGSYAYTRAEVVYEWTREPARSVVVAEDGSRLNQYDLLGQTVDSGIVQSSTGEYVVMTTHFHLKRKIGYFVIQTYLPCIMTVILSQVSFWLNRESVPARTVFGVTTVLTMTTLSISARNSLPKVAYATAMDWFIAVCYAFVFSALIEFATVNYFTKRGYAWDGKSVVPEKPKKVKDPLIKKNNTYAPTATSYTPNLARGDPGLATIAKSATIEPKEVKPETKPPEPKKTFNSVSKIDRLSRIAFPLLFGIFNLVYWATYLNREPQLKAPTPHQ
T8 sequence (P18507 whole entry): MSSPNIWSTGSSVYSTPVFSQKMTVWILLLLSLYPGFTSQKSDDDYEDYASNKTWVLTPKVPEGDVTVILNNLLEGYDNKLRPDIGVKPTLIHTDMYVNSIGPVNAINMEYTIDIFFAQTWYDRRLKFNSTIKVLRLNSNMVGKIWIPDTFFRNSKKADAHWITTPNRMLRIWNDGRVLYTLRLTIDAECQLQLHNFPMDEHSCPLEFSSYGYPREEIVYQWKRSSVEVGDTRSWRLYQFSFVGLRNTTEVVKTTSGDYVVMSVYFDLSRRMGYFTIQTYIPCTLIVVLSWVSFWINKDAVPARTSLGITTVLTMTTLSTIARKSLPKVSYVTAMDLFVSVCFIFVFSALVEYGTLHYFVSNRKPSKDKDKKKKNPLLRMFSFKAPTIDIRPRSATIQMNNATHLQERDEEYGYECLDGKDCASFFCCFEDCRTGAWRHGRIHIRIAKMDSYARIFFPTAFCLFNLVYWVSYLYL
T8 sequence (P47870 whole entry): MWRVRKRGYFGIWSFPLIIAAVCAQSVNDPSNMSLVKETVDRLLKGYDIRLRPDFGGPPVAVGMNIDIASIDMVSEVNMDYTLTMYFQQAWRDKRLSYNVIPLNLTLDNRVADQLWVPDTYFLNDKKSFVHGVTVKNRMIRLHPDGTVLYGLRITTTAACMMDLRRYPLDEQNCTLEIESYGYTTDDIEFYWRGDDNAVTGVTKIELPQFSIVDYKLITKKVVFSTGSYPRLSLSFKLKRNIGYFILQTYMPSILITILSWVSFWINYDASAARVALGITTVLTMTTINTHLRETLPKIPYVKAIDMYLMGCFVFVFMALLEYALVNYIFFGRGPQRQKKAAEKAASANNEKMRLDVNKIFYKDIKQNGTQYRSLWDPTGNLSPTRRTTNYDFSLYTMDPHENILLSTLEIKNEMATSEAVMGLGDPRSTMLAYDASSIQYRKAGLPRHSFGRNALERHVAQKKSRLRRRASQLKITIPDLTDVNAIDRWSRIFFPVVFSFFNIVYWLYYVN
Protocol: as §1

Serotonin 5-HT3 = target: T9, Serotonin 5-HT3 (Homo sapiens, UniProt P46098); design: Cerep Bioprint off-target panel, ligand binding inhibition; conditions: binder
T9 construct: gene HTR3A
T9 sequence (P46098 whole entry): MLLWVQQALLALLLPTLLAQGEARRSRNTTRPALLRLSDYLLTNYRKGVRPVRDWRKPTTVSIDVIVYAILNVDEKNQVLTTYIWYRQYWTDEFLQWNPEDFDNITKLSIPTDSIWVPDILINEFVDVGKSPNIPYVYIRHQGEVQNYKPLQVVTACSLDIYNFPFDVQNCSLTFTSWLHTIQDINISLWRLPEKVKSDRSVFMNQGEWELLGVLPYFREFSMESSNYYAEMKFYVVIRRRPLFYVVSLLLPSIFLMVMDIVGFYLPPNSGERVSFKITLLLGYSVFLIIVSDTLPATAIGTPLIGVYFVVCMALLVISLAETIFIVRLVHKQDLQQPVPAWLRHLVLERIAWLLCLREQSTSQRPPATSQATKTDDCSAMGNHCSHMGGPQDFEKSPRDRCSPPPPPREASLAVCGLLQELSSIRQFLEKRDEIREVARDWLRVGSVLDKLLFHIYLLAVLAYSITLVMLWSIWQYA
Protocol: as §1

Glucocorticoid Receptor = target: T10, Glucocorticoid Receptor (Homo sapiens, UniProt P04150); design: Cerep Bioprint off-target panel, ligand binding inhibition; conditions: binder
T10 construct: gene NR3C1
T10 sequence (P04150 whole entry): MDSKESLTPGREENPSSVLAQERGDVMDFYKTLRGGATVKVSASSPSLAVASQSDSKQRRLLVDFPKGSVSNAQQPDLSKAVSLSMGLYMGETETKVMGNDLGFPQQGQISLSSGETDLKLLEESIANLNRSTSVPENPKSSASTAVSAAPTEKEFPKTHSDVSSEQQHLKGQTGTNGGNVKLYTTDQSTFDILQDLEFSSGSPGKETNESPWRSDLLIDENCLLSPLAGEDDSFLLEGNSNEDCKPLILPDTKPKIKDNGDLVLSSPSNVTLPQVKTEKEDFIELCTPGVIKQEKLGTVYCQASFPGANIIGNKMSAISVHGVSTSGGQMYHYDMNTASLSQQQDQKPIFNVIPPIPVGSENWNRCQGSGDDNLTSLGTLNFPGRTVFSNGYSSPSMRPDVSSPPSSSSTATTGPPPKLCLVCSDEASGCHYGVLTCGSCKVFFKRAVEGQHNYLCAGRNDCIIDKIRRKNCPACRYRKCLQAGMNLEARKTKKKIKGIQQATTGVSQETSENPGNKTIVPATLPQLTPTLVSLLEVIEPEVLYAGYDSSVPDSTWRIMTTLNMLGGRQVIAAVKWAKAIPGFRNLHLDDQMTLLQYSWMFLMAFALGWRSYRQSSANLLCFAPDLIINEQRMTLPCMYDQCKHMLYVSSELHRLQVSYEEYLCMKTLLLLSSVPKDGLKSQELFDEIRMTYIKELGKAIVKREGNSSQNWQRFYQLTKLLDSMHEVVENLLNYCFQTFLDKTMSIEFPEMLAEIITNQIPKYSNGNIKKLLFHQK
Protocol: as §1

Kdr Kinase (VEGFR2) = Kdr Kinase (VEGFR2) (Homo sapiens, UniProt P35968); experiment: biochemical; design: Cerep Bioprint off-target panel, enzyme or kinase inhibition
Protocol: as §1

PPAR-gamma [4] = target: T3, PPAR-gamma; experiment: biochemical; design: Cerep Bioprint off-target panel, ligand binding inhibition
Protocol: as §1

Cannabinoid CB1 = target: T11, Cannabinoid CB1 (Homo sapiens, UniProt P21554); experiment: cell-based; design: Cerep Bioprint off-target panel, functional receptor agonism or antagonism
T11 construct: gene CNR1
T11 sequence (P21554 whole entry): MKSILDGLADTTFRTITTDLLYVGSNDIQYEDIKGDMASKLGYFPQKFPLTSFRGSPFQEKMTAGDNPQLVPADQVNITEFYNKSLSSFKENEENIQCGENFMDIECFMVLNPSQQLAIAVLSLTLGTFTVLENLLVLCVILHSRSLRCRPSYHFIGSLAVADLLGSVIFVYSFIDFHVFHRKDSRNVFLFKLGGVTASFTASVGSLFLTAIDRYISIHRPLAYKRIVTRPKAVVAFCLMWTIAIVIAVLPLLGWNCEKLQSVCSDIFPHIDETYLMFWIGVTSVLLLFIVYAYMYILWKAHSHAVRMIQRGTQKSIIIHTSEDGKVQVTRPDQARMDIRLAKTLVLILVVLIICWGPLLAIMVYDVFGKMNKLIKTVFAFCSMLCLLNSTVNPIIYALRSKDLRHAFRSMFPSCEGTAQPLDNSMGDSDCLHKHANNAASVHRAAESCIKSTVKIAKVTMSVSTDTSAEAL
Protocol: as §1

Compound: O=C(O)c1sc2cc(F)sc2c1Cl [PF-07208254, 3-chloro-5-fluorothieno[3,2-b]thiophene-2-carboxylic acid]
- % Inhibition (binding) PF-07208254 ([1]; 100 µM): -15%
- % Inhibition (binding) PF-07208254 (Choline Transporter; 100 µM): -15%
- % Inhibition (binding) PF-07208254 (PPAR-gamma [2]; 100 µM): 62%
- % Inhibition (binding) PF-07208254 (Serotonin Transporter; 100 µM): -3%
- % Inhibition (binding) PF-07208254 ([3]; 100 µM): -6%
- % Inhibition (binding) PF-07208254 (Dopamine Transporter; 100 µM): 7%
- % Inhibition (binding) PF-07208254 (Androgen Receptor; 100 µM): -4%
- % Inhibition (binding) PF-07208254 (GABAa1 Receptor; 100 µM): -12%
- % Inhibition (binding) PF-07208254 (Serotonin 5-HT3; 100 µM): -14%
- % Inhibition (binding) PF-07208254 (Glucocorticoid Receptor; 100 µM): 4%
- IC50 (Kdr Kinase (VEGFR2)): 76 µM
- IC50 (PPAR-gamma [4]): 86 µM
- EC50 (Cannabinoid CB1): 180 µM

Compound: CCC1(COc2ccc(-c3csc(-c4ccccc4C(=O)O)n3)cn2)CC1 [PF-07247685, 2-(4-{6-[(1-ethylcyclopropyl)methoxy]pyridin-3-yl}-1,3-thiazol-2-yl)benzoic acid]
- % Inhibition (binding) PF-07247685 ([1]; 10 µM): 6%
- % Inhibition (binding) PF-07247685 (Choline Transporter; 10 µM): -12%
- % Inhibition (binding) PF-07247685 (PPAR-gamma [2]; 10 µM): 21%
- % Inhibition (binding) PF-07247685 (Serotonin Transporter; 10 µM): 2%
- % Inhibition (binding) PF-07247685 ([3]; 10 µM): -4%
- % Inhibition (binding) PF-07247685 (Dopamine Transporter; 10 µM): -1%
- % Inhibition (binding) PF-07247685 (Androgen Receptor; 10 µM): -8%
- % Inhibition (binding) PF-07247685 (GABAa1 Receptor; 10 µM): -21%
- % Inhibition (binding) PF-07247685 (Serotonin 5-HT3; 10 µM): 0%
- % Inhibition (binding) PF-07247685 (Glucocorticoid Receptor; 10 µM): 0%
- IC50 (PPAR-gamma [4]; read-out: IC50 binding PF-07247685): 50 µM
